Experimental data from patent US5547970A, “Use of leflunomide for inhibiting tumor necrosis factor alpha” (priority 1993, dated 1996).
“Also recorded” adds a separate entry of the source.

What was measured:
[1] = test system: TNFalpha; experiment: Inhibition of lipopolysaccharide-induced synthesis and liberation of TNFalpha in human mononuclear blood cells (sandwich enzyme immuno test); assay type: cell-based; settings: for activity at 10 µM: 0.01 mmol/l; for activity at 100 µM: 0.1 mmol/l; for inhibitory effect on the synthesis and liberation of cytokines from human blood cells / effect on the TNFalpha level: in words; for effect on the TNFalpha level: experiments in Tab. 1
Experimental: The cell fraction which was visible as a white ring at the phase boundary was removed with the aid of a syringe, diluted 1:1 (v/v) with PM-16 buffer (from Serva Feinbiochemica GmbH & Co. KG, Heidelberg) and then centrifuged once again, as above, for 10 min. […] Using a cell counter (type IT, from Coulter Diagnostics, Krefeld), the cell suspension, which is composed of about 90% lymphocytes and 10% monocytes, was adjusted to about 5 million cells/ml. Cell viability was monitored before and after the inhibition experiments using the known lactate dehydrogenase method.
The synthesis and liberation of cellular TNFalpha was induced by adding a solution of 500 ng of lipopolysaccharide (Salmonella abortus equi, Sigma GmbH, Deisenhofen) in 0.01 ml of dimethyl sulfoxide/water (1:10, v/v) to 0.48 ml of the above-described cell fraction. At the same time, a solution of leflunomide or leflunomide metabolite in 0.01 ml of dimethylsulfoxide (for the final concentration in each case, see Tab. 1) was added to the cell fraction and the mixture was left at 37° C. for 20 h in a commercially available incubator. After cooling down to 0° C., the samples were centrifuged for 1 min. in a bench centrifuge. and in each case 0.025 ml aliquots of the supernatant were examined for their TNFalpha content using a "sandwich" enzyme immuno test kit (from Biermann GmbH, Bad Nauheim) in accordance with the manufacturer's instructions. The control values were determined without the addition of leflunomide or its metabolites and set at 100%. In particular, any possible influence of dimethylsulfoxide on the TNFalpha level was excluded by appropriate comparative measurements.

[2] = test system: mononuclear cells; experiment: Metabolism of leflunomide in the test sample (mononuclear cell fraction), HPLC; assay type: in vitro ADME, human; settings: in words; isolated mononuclear blood cells
[3] = as above; assay type: in vitro ADME, human; settings: human, mononuclear cells; mononuclear cell fraction, 37° C., HPLC; read-out: half life of metabolism of leflunomide to its metabolites (converted)
[4] = Homo sapiens, LPS 500 ng, 37° C., 20 h, control = 100%, read-out: TNFalpha in the supernatant % +/- standard deviation

Compound: C/C(O)=C(\C#N)C(=O)Nc1ccc(C(F)(F)F)cc1 [Leflunomide metabolite, N-(4-trifluoromethylphenyl)-2-cyano-3-hydroxycrotonamide]
- activity at 10 µM [1, 4]: 102 ± 12%
- activity at 100 µM [1, 4]: 105%
- inhibitory effect on the synthesis and liberation of cytokines from human blood cells [1]: does not exhibit this advantageous effect
- effect on the TNFalpha level [1]: practically no effect on the TNFalpha level

Compound: Cc1oncc1C(=O)Nc1ccc(C(F)(F)F)cc1 [Leflunomide, N-(4-trifluoromethylphenyl)-5-methylisoxazole-4-carboxamide]
- metabolism of leflunomide under the experimental conditions [2]: did not, to any appreciable extent, metabolize; also recorded: only very slowly; also recorded: no appreciable metabolism
- half-life [3]: ~10 h
- activity at 10 µM [1, 4]: 100 ± 15%
- activity at 50 µM ([1]; Homo sapiens, 0.05 mmol/l, LPS 500 ng, 37° C., 20 h, control = 100%, read-out: TNFalpha in the supernatant % +/- standard deviation): 35%
- activity at 100 µM [1, 4]: 28 ± 5%
- inhibitory effect on the synthesis and liberation of cytokines from human blood cells [1]: strong inhibitory effect
- effect on the TNFalpha level [1]: clearly lowered
